# Reference: patent publication US12157730B2, “Heteroaryl derivative, method for producing same, and pharmaceutical composition comprising same as effective component” (VORONOI INC., priority 2019, dated 2024)
# Biological target: T1, Ba/F3 cell EGFR Exon20 ins NPH (Homo sapiens, UniProt P00533, INS773NPH)
# T1 construct: expressed in transfected cells; host or cells: Ba/F3
# Experiment: Ba/F3 cell proliferation suppression, EGFR Exon20 ins NPH
# Format: cell-based
# Conditions: GI50 class; Ba/F3 cell line with NPH inserted at Exon20 of EGFR; 72 hours
# Procedure, shortened: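 Cells (3000–5000/well) plated 24 h before compound, 12-point 3-fold dilutions at 0.3 nM to 50 um final; Ba/F3 lines grown with 5 ng/ml IL-3. Viability by CellTiter-Glo luminescence after 72 h, growth ratio vs control, GI50 from curves; triplicate.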
row,Ba/F3 (NPH) Activity,Compound
1,B (50 nM ≤ GI50 < 500 nM),"C=CC(=O)Nc1cc(Nc2cc(N3OCC[C@@H]3c3cccc(C#N)c3)ncn2)c(OC)cc1N1CCN(CC)CC1 [compound 396, N-(5-((6-((R)-3-(3-cyanophenyl)isoxazolidine-2-yl)pyrimidine-4-yl)amino)-2-(4-ethylpiperazine-1-yl)-4-methoxyphenyl) acrylamide]"
2,A (GI50 < 50 nM),"C=CC(=O)Nc1cc(Nc2cc(N3OCC[C@@H]3c3cccs3)ncn2)c(OC)cc1N(C)CCN(C)C [compound 928, N-(2-((2-(dimethylamino)ethyl) (methyl)amino)-4-methoxy-5-((6-((R)-3-(thiophene-2-yl)isoxazolidine-2-yl)pyrimidine-4-yl)amino)phenyl)acrylamide]"
3,A (GI50 < 50 nM),"C=CC(=O)Nc1cc(Nc2cc(N3OCC[C@@H]3Cc3cccc(Cl)c3C)ncn2)c(OC)cc1N1CCC(N2C[C@H]3C[C@@H]2CO3)CC1 [compound 1030, N-(2-(4-((1R,4R)-2-oxa-5-azabicyclo [2.2.1]heptane-5-yl)piperidine-1-yl)-5-((6-((S)-3-(3-chloro-2-methylbenzyl)isoxazolidine-2-yl)pyrimidine-4-yl)amino)-4-methoxyphenyl) acrylamide]"
4,A (GI50 < 50 nM),"C=CC(=O)Nc1cc(Nc2cc(N3OCC[C@@H]3Cc3ccc(C(F)(F)F)cc3)ncn2)c(OC)cc1N1CCC(N2C[C@H]3C[C@@H]2CO3)CC1 [compound 1051, N-(2-(4-((1R,4R)-2-oxa-5-azabicyclo [2.2.1]heptane-5-yl)piperidine-1-yl)-4-methoxy-5-((6-((S)-3-(4-(trifluoromethyl)benzyl)isoxazolidine-2-yl)pyrimidine-4-yl)amino)phenyl)acrylamide]"
5,A (GI50 < 50 nM),"C=CC(=O)Nc1cc(Nc2cc(N3OCC[C@@H]3c3cccc(F)c3F)ncn2)c(OC)cc1N1CCC(N2CCN(C)[C@@H](C)C2)CC1 [compound 335, N-(5-((6-((R)-3-(2,3-difluorophenyl)isoxazolidine-2-yl)pyrimidine-4-yl)amino)-2-(4-((S)-3,4-dimethylpiperazine-1-yl)piperidine-1-yl)-4-methoxyphenyl) acrylamide]"
6,A (GI50 < 50 nM),"C=CC(=O)Nc1cc(Nc2cc(N3OCC[C@@H]3c3ccc(Cl)c(Cl)c3)ncn2)c(OC)cc1N1C[C@H]2C[C@@H]1CN2C [compound 674, N-(5-((6-((R)-3-(3,4-dichlorophenyl)isoxazolidine-2-yl)pyrimidine-4-yl)amino)-4-methoxy-2-((1R,4R)-5-methyl-2,5-diazabicyclo[2.2.1]heptane-2-yl)phenyl) acrylamide]"
7,B (50 nM ≤ GI50 < 500 nM),"C#Cc1cccc([C@H]2CCON2c2cc(Nc3cc(NC(=O)C=C)c(N4CCN(C5CC5)CC4)cc3OC)ncn2)c1 [compound 654, N-(2-(4-cyclopropylpiperazine-1-yl)-5-((6-((R)-3-(3-ethynylphenyl)isoxazolidine-2-yl)pyrimidine-4-yl)amino)-4-methoxyphenyl) acrylamide]"
8,B (50 nM ≤ GI50 < 500 nM),"C=CC(=O)Nc1cc(Nc2cc(N3OCC[C@@H]3c3ccc(F)c(F)c3F)ncn2)c(OC)cc1N1CCC(N2CCC(N(C)C)CC2)CC1 [compound 656, N-(2-(4-(dimethylamino)-[1,4'-bipiperidine]-1'-yl)-4-methoxy-5-((6-((R)-3-(2,3,4-trifluorophenyl)isoxazolidine-2-yl)pyrimidine-4-yl)amino)phenyl)acrylamide]"
9,A (GI50 < 50 nM),"C=CC(=O)Nc1cc(Nc2cc(N3OCC[C@@H]3c3cc(F)ccc3F)ncn2)c(OC)cc1N1CCC(N2C[C@@H](C)O[C@@H](C)C2)CC1 [compound 714, N-(5-((6-((R)-3-(2,5-difluorophenyl)isoxazolidine-2-yl)pyrimidine-4-yl)amino)-2-(4-((2S,6R)-2,6-dimethylmorpholino)piperidine-1-yl)-4-methoxyphenyl) acrylamide]"
10,A (GI50 < 50 nM),"C=CC(=O)Nc1cc(Nc2cc(N3OCC[C@@H]3c3ccc(F)cc3F)ncn2)c(OC)cc1N1CCC(N2CCOCC2)CC1 [compound 378, N-(5-((6-((R)-3-(2,4-difluorophenyl)isoxazolidine-2-yl)pyrimidine-4-yl)amino)-4-methoxy-2-(4-morpholinopiperidine-1-yl)phenyl)acrylamide]"
11,A (GI50 < 50 nM),"C=CC(=O)Nc1cc(Nc2cc(N3OCC[C@@H]3c3cccc(F)c3F)ncn2)c(OC)cc1N1CCN(C2COC2)CC1 [compound 923, N-(5-((6-((R)-3-(2,3-difluorophenyl)isoxazolidine-2-yl)pyrimidine-4-yl)amino)-4-methoxy-2-(4-(oxetane-3-yl)piperazine-1-yl)phenyl) acrylamide]"
12,A (GI50 < 50 nM),"C=CC(=O)Nc1cc(Nc2cc(N3OCC[C@@H]3c3ccc(Cl)c(F)c3)ncn2)c(OC)cc1N1CCC(N2CCN(C(C)C)CC2)CC1 [compound 708, N-(5-((6-((R)-3-(4-chloro-3-fluorophenyl)isoxazolidine-2-yl)pyrimidine-4-yl)amino)-2-(4-(4-isopropylpiperazine-1-yl)piperidine-1-yl)-4-methoxyphenyl) acrylamide]"
13,A (GI50 < 50 nM),"C=CC(=O)Nc1cc(Nc2cc(N3OCC[C@@H]3c3cc(F)cc(F)c3)ncn2)c(OC)cc1N1C[C@@H]2CCN(C)[C@@H]2C1 [compound 891, N-(5-((6-((R)-3-(3,5-difluorophenyl)isoxazolidine-2-yl)pyrimidine-4-yl)amino)-4-methoxy-2-((3aS,6aS)-1-methylhexahydropyrrolo [3,4-b]pyrrole-5(1H)-yl)phenyl) acrylamide]"
14,A (GI50 < 50 nM),"C=CC(=O)Nc1cc(Nc2cc(N3OCC[C@@H]3c3cccc(Cl)c3Cl)ncn2)c(OC)cc1N1CCC(N2CCN(C3CC3)CC2)CC1 [Example 162, N-(2-(4-(4-cyclopropylpiperazine-1-yl)piperidine-1-yl)-5-((6-((R)-3-(2,3-dichlorophenyl)isoxazolidine-2-yl)pyrimidine-4-yl)amino)-4-methoxyphenyl) acrylamide]"
15,A (GI50 < 50 nM),"C=CC(=O)Nc1cc(Nc2cc(N3OCC[C@@H]3c3cccc(Cl)c3F)ncn2)c(OC)cc1N1CCC(N2C[C@@H](C)O[C@@H](C)C2)CC1 [compound 706, N-(5-((6-((R)-3-(3-chloro-2-fluorophenyl)isoxazolidine-2-yl)pyrimidine-4-yl)amino)-2-(4-((2S,6R)-2,6-dimethylmorpholino)piperidine-1-yl)-4-methoxyphenyl) acrylamide]"
16,A (GI50 < 50 nM),"C=CC(=O)Nc1cc(Nc2cc(N3OCC[C@@H]3c3cccc(F)c3)ncn2)c(OC)cc1N1CCC(N2C[C@@H]3C[C@H]2CN3CC)CC1 [compound 835, N-(2-(4-((1S,4S)-5-ethyl-2,5-diazabicyclo[2.2.1]heptane-2-yl)piperidine-1-yl)-5-((6-((R)-3-(3-fluorophenyl)isoxazolidine-2-yl)pyrimidine-4-yl)amino)-4-methoxyphenyl) acrylamide]"
17,A (GI50 < 50 nM),"C=CC(=O)Nc1cc(Nc2cc(N3OCC[C@@H]3c3cccc(C#N)c3)ncn2)c(OC)cc1N1CCC(N2CCN(C(C)C)CC2)CC1 [compound 494, N-(5-((6-((R)-3-(3-cyanophenyl)isoxazolidine-2-yl)pyrimidine-4-yl)amino)-2-(4-(4-isopropylpiperazine-1-yl)piperidine-1-yl)-4-methoxyphenyl) acrylamide]"
